Test [1] deals with hyperuricemic mice. Nature of the test: action of lowering serum uric acid levels for hyperuricemic mice (potassium oxonate model). It counts as in vivo, BALBc mice. The conditions noted are these: FIG. 2. As for the experimental part: As to the animals used, male 7-week old BALBc mice were purchased from CLEA Japan, Inc., and subjected to an experiment after a one-week period of conditioning. The animals were bred in a breeding room with air-conditioning facilities (temperature: 23.5°±1.0° C., humidity: 55±10 RH %, the number of ventilation: 12 to 15 times/hour, illuminated: from 7:00 to 19:00 each day). During the period of conditioning, the mice were allowed to take a commercially available feed (CE-2, manufactured by CLEA Japan, Inc.) and distilled water ad libitum.
Oxonic acid is a substance that raises a blood uric acid level by inhibiting a urikase, a metabolic enzyme for uric acid. In view of the above, potassium oxonate (PO) was administered, thereby generating hyperuricemic model animals (see, Planta Med 2009; 75:302-306). […] In all the groups that include PO administration, PO previously suspended in a 0.5% aqueous CMC-Na solution was administered at a concentration of 250 mg/kg, and Normal Group was administered with a 0.5% aqueous CMC-Na solution, each being administered intraperitoneally. […] After 2 hours from the administration with PO, the blood was collected from the abdominal vena cava under anesthesia. After blood removal, the liver was harvested. The collected blood was allowed to stand at room temperature for 45 minutes, and centrifuged at 8,000 rpm for 10 minutes to recover sera. Here, the sera and the liver were preserved at −80° C. until the measurements were carried out.
The serum uric acid level was measured using 7180 Clinical Analyzer (manufactured by Hitachi Technologies).
The actions of lowering serum uric acid levels of soybean peptide heat-treated products were studied using hyperuricemic model animals, in the same manner as in Test Example 2. […] For each of the above-mentioned groups, the administration and the blood collection were carried out in the same manner as in Test Example 2 to measure a serum uric acid level. Here, the mixture of the 8 kinds of cyclic dipeptides prepared by using synthesized products of Cyclo(Ser-Tyr), Cyclo(Tyr-Gly), Cyclo(Tyr-Tyr), Cyclo(Phe-Tyr), Cyclo(Leu-Tyr), Cyclo(Val-Tyr), Cyclo(Ile-Tyr), and Cyclo(Asn-Tyr), in amounts to be contained in the soybean peptide heat-treated product, was used.
The actions of lowering serum uric acid levels of soybean peptide heat-treated products according to dose were studied using hyperuricemic model animals, in the same manner as in Test Example 3. […] For each of the above-mentioned groups, the administration and the blood collection were carried out in the same manner as in Test Example 2 to measure a serum uric acid level.

Test [2] concerns the target xanthine oxidase (XO). Put plainly: in vitro xanthine oxidase (XO) inhibiting action. The class given is biochemical. Conditions: 4 U/L XO in PBS pH 7.5, xanthine substrate, absorbance at 295 nm after 30 minutes; mean±standard error. As for the experimental part: The in vitro xanthine oxidase (XO) inhibiting action was studied on 210 kinds of cyclic dipeptides, linear dipeptides Tyr-Gly and Gly-Tyr, and an amino acid Tyr. […] Thereafter, 20 μL of a 250 μM xanthine solution previously dissolved in the PBS was added thereto, and the absorbance after 30 minutes was measured using a spectrophotometer (Synegy HT, manufactured by Bio Tek). The XO inhibition rate (%) at each concentration was calculated by the following calculation formula, to obtain activities of inhibiting XO (IC50 values). […] [formula] • wherein A: the absorbance of an enzyme-added, sample-non-added group at 295 nm; • B: the absorbance of an enzyme-non-added, sample-non-added group at 295 nm; • C: the absorbance of an enzyme-added, sample-added group at 295 nm; and • D: the absorbance of an enzyme-non-added, sample-added group at 295 nm.

`Oc1ncnc2[nH]ncc12` [Allopurinol, reference compound]: in test [1] (1 mg/kg oral), the “serum uric acid level, effect versus PO Group” value was “significant difference”. Turning to `NC(=O)CC1NC(=O)C(Cc2ccc(O)cc2)NC1=O` (centres unmarked) [Cyclo(Asn-Tyr), cycloasparaginyltyrosine], the IC50 – broadly, the concentration that gives 50% inhibition – in test [2] came out at 113 ± 11.4 µM.

On to `O=C(O)CC1NC(=O)C(Cc2ccc(O)cc2)NC1=O` (centres unmarked) [Cyclo(Asp-Tyr), cycloaspartyltyrosine], for which the IC50 in test [2] is 172 ± 13.5 µM. Same read-out and setting: for `O=C1NC(Cc2ccc(O)cc2)C(=O)NC1Cc1ccccc1` (centres unmarked) [Cyclo(Phe-Tyr), cyclophenylalanyltyrosine] the value was 22.2 ± 0.8 µM. As for `O=C1CNC(=O)C(Cc2ccc(O)cc2)N1` (centres unmarked) [Cyclo(Tyr-Gly), cyclotyrosylglycine], the “serum uric acid level, effect versus PO Group” value in test [1] (30 mg/kg oral) and in test [1] (100 mg/kg oral) was “significant difference” in each case. In test [1] (Cyclo(Tyr-Gly) 10, 30, 100 mg/kg oral, PO 250 mg/kg i.p.), the “action of lowering serum uric acid level” value was “has an action of lowering a uric acid level in a dose-dependent manner”. On to `O=C1NC(Cc2ccc(O)cc2)C(=O)NC1Cc1ccc(O)cc1` (centres unmarked) [Cyclo(Tyr-Tyr), cyclotyrosyltyrosine], for which it took 29.5 ± 2.9 µM to reach half-maximal inhibition in test [2] (IC50).

The values are drawn from US9650415B2, “Uric acid-lowering agent” (Suntory Holdings Limited, priority 2014, dated 2017).
